Experiment: in vitro
Conditions: human

half-life at 0.75 h, 3 µM (microsomes) [min] | half-life at 0.75 h, 3 µM (liver microsomes) [min] | SMILES
30 |  | N[C@@H](CC(=O)N1CCC[C@H]1COCC1CC1)Cc1cc(F)c(F)cc1F
 | > 120 | N[C@@H](CC(=O)N1CCC[C@H]1CNC(=O)CC(F)(F)F)Cc1cc(F)c(F)cc1F
 | 71 | N[C@@H](CC(=O)N1CCC[C@H]1CNC(=O)C1CCCC1)Cc1cc(F)c(F)cc1F
 | 38 | N[C@@H](CC(=O)N1CCC[C@H]1CNC(=O)C1CCC1)Cc1cc(F)c(F)cc1F

— ChEMBL document CHEMBL1153064, “From lead to preclinical candidate: optimization of beta-homophenylalanine based inhibitors of dipeptidyl peptidase IV” (Bioorg Med Chem Lett, 2009)
